Laboratory results reported in BindingDB's records for doi:10.1016/j.bmc.2020.115928 (Tu Dresden, 2021).
pIC50: −log10 of the molar value.

Assay: Inhibition of rabbit skeletal muscle myosin-2 ATPase incubated for 20 mins followed by ATP addition and measured after 20 mins

Oc1c(Br)cc(Br)cc1-c1[nH]c(Br)c(Br)c1Br [pentabromopseudilin]
pIC50: 5.29
